“Also recorded” adds a separate entry of the source. Non-standard residues stand in square brackets, D forms with d. Residues, ends and D or L forms follow the SMILES beside them. No end group written: not given here. Hyp = O=C(O)[C@@H]1C[C@@H](O)CN1; 2Thi = N[C@@H](Cc1cccs1)C(=O)O; Gly(N-cHex) = O=C(O)CNC1CCCCC1
Columns and labels:
GBM cells = settings: vs. temozolomide (TMZ); ref [33]; cited from earlier work
BBB / brain cancer = system: BBB / brain cancer; design: method as in PMID 22709590; settings: ref [33]; cited from earlier work
human B2R [1] = target: T1, human B2R (Homo sapiens, UniProt P30411); assay: Radioligand displacement binding assay, [3H]BK, human B2R-HEK293 cells; settings: for binding affinity at human B2R, in words: HEK293 cells stably expressing human B2R; for IC50: displacement of 1 nM [3H]BK, living adherent HEK293 cells stably expressing human B2R, serum-free DMEM, 1.5 h, 4 °C, mean of two independent experiments performed in duplicates
T1 construct: expressed in transfected cells; host or cells: QBI HEK 293A cells, lentiviral transduction with pCDH-BDKRB2, puromycin selection
T1 sequence (P30411 1-391): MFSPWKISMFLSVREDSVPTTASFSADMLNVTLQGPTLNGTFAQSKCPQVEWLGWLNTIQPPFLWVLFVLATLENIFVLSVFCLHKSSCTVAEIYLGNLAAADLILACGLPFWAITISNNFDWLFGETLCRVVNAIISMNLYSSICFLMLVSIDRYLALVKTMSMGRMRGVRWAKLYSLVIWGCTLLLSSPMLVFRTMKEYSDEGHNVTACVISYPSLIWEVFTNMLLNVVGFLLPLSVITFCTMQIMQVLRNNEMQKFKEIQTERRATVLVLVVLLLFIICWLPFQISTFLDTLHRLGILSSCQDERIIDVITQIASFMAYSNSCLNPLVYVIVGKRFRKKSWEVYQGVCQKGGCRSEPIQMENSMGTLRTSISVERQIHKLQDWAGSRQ
Experimental: The pCDH-BDKRB2 vector was produced from the plasmid pcDNA3.1/human BDKRB2 by PCR amplification using the primers 5′-[…]-3′ and 5′-[…]-3′, and introduced into pCDH-CMV-MCS-EF1 vector using BamHI et XbaI restriction sites. Lentiviruses were produced from pCDH-BDKRB2 vector in HEK293T cells using the X-tremeGENE HP transfection reagent (Millipore-Sigma, Oakville, ON, Canada). Lentiviruses were harvested 48 h post-transfection and used to infect QBI HEK 293A cells (ATCC). Transduced cells were selected using 5 µg/mL of puromycin (Thermo Fisher, Burlington, On, Canada).
Radioligand displacement binding assays were performed as we previously described, with slight modifications. HEK293 cells stably expressing human B2R were used for these assays (see text above). […] Radioactivity of samples was measured by a β-scintillation counter (PerkinElmer, Woodbridge, On, Canada). Binding affinities of peptides were expressed in terms of IC50 values—the molar concentration of an unlabeled agonist causing 50% displacement of specific binding (GraphPad Prism 8.2).

human B2R [2] = target: T1, human B2R; assay: IP-One accumulation assay, human B2R-HEK293 cells; assay type: cell-based; settings: for EC50: IP1 accumulation, 30 min, room temperature, pH 7.4, 50 mM LiCl, human B2R-HEK293, 15,000 cells per well, mean of two independent experiments performed in duplicates, read-out: IP1 Assays (EC50; nM)
Experimental: The IP-One assay was performed on living, adherent human B2R-HEK293 cells according to the manufacturer’s recommendations (Cisbio, #62IPAPEB, Bedford, MA, USA). […] IP1-d2 and anti-IP1-Cryptate were added for at least 1 h. Fluorescence signal was measured using a Tecan M1000 plate reader (excitation at 320 nm and emission at 620 and 665 nm). EC50 values were calculated by curve-fitting using GraphPad Prism 8.2.

[3] = system: BBB, irradiated mouse brain; assay: DCE-MRI of BBB permeability to Gd-DTPA in irradiated mouse brain; assay type: in vivo; settings: T1-weighted, 10 months after 45 Gy; Gd-DTPA alone or with NG291 50 µg/kg i.v.
From the text: Female Balb/c mice were anesthetized using 1.5 L/min oxygen containing isoflurane (3% for induction, 2% for maintenance) and positioned on a custom-designed stereotactic bed compatible with the Leksell Gamma Knife Perfexion (Elekta AB, Stockholm, Sweden). A maximum dose of 45 Gy (23.1 Gy at the 50% isodose) was delivered through 4 mm collimators in the right hemisphere of the brain. Mouse and human brains have different sensitivities to radiation. This dose was selected because it allows the development and slow progression of radiation necrosis (approximatively appearing at 17 months post-irradiation in T2-weighted MRI; Figure 4), similar to what may be observed in brain cancer patients who received radiotherapy. After irradiation, mice were placed on a heating pad to recover, and were then returned to their cages.
For dynamic contrast-enhanced (DCE)-MRI imaging, pre-contrast T1-weighted imaging with an array of flip angles (α = 10°, 20°, 25°, 35°, 50°) was performed to acquire a T1 map with the following parameters: TR = 100 ms, TE = 2.79 ms, data matrix = 128 × 128, FOV = 20 × 20 mm^2; 1 average; 10 slices; 1 mm slice thickness. Then, a dynamic acquisition with the same parameters and a fixed angle at 30° was acquired before, during, and after injection of contrast agent. […]

[4] = system: 4T1-luc mammary cancer cells, brain metastases in mice; assay: 4T1-luc breast cancer brain metastasis model; assay type: in vivo, mouse; settings: NG291 50 μg/kg over 5 min i.v., single dose, 18 days, 6–8 animals
Experimental: Mice were anesthetized using 1.5 L/min oxygen-containing isoflurane (3% for induction, 2% for maintenance) and secured with tape in a supine position on a heating pad. A total of 1 × 10^5 4T1-Luc cells suspended in 100 µL of sterile saline was slowly injected into the left ventricle of the heart using a 1 mL Hamilton syringe mounted with a 30G needle as described previously. For BBB disruption experiments, a cannula was placed in the caudal vein and a single dose of NG291 (50 µg/kg/5 min) was infused into the caudal vein while simultaneously injecting the cancer cells intracardially. Successful intracardiac injection and tumor development was evaluated weekly by bioluminescence imaging. The development of brain metastatic tumor burden was determined by histological analysis.
Brain sections from mice inoculated with 4T1-Luc cells were stained with hematoxylin-eosin (H and E) for histological examination and metastases quantification using the NanoZoomer Digital Pathology software (Hamamatsu, NDP.view version 2.7.25). H and E staining was performed on brain sections every 20–30 µm. The relative total area and number of metastatic foci in the entire brain section were calculated from manual delineation of metastases in digital images of H and E-stained brain slides using the NanoZoomer NDP.view2 viewing software free hand tool. […] A total of 68 slices were analyzed.

normal mice = assay: Tolerability / blood pressure effect in anesthetized normal mice; assay type: in vivo, mouse
[5] = system: angiotensin-converting enzyme (ACE, alias kininase II); settings: ref [26]; cited from earlier work
leucocytes, brain = settings: exogenous BK; ref [21],[24]; cited from earlier work
BBB / BTB = system: BBB / BTB; design: method as in 2 sources, one per row (each row's own in cited_ref): ref [2],[13] = [2]; PMID 15153840; doi:10.1177/107327480401100304; 2. Black K.L. Ningaraj N.S. Modulation of brain tumor capillaries for enhanced drug delivery selectively to brain tumor Cancer Control. 2004 11 165 173 10.1177/107327480401100304 15153840 || [13]; PMID 11286321; doi:10.2165/00003088-200140020-00003; 13. Emerich D.F. Dean R.L. Osborn C. Bartus R.T. The development of the bradykinin agonist labradimil as a means to increase the permeability of the blood-brain barrier: From concept to clinical evalu ||| ref [2],[46],[47] = [2]; PMID 15153840; doi:10.1177/107327480401100304; 2. Black K.L. Ningaraj N.S. Modulation of brain tumor capillaries for enhanced drug delivery selectively to brain tumor Cancer Control. 2004 11 165 173 10.1177/107327480401100304 15153840 || [46]; PMID 20146088; doi:10.1007/s11060-010-0124-x; 46. Liu L.B. Xue Y.X. Liu Y.H. Bradykinin increases the permeability of the blood-tumor barrier by the caveolae-mediated transcellular pathway J. Neurooncol. 2010 99 187 194 10.1007/s11060-010-0124-x || [47]; PMID 12023511; doi:10.1124/jpet.301.3.838; 47. Ningaraj N.S. Rao M. Hashizume K. Asotra K. Black K.L. Regulation of blood-brain tumor barrier permeability by calcium-activated potassium channels J. Pharmacol. Exp. Ther. 2002 301 838 851 10.112; settings: increased numbers of pinocytotic vesicles or caveolae; ref [2],[46],[47]; cited from earlier work
From the text: Kinin effects are mediated through specific activation of two types of receptors, namely, the kinin B1 (B1R) and B2 receptors (B2R), both belonging to the G-protein-coupled receptor family. […] The strategy exploiting targeted stimulation of the kinin receptors could perhaps ...

COc1cccc2c1C(=O)c1c(O)c3c(c(O)c1C2=O)C[C@@](O)(C(=O)CO)C[C@@H]3O[C@H]1C[C@H](N)[C@H](O)[C@H](C)O1 [DOX, doxorubicin]
potency for killing GBM cells in vitro (GBM cells): more potent than temozolomide (TMZ) for killing GBM cells in vitro
BBB crossing and in vivo efficacy in brain cancer (BBB / brain cancer): does not readily cross the BBB and so shows poor efficacy in in vivo models

N=C(N)NCCC[C@@H](N)C(=O)N[C@H](Cc1ccccc1)C(=O)N1CCC[C@@H]1C(=O)N[C@H](CO)C(=O)N[C@H](Cc1ccccc1)C(=O)NCC(=O)N1CCC[C@@H]1C(=O)N1CCC[C@@H]1C(=O)N[C@H](CCCNC(=N)N)C(=O)O [RI-BK, D(retroinverso)-BK] (H-[dR][dF][dP][dS][dF]G[dP][dP][dR]-OH; N-terminus and C-terminus assumed)
binding affinity at human B2R, in words (human B2R [1]): no binding affinity
IC50 (human B2R [1]): > 10000 nM
agonist activity/potency at human B2R, in words (human B2R [2]; IP1, HEK293 cells stably expressing human B2R): no binding affinity and agonist activity at human B2R
EC50 (human B2R [2]): > 10000 nM

CNC[C@H](O)[C@@H](O)[C@H](O)[C@H](O)CO.CNC[C@H](O)[C@@H](O)[C@H](O)[C@H](O)CO.O=C([O-])CN(CCN(CC(=O)[O-])CC(=O)O)CCN(CC(=O)[O-])CC(=O)O.[Gd+3] [Gd-DTPA]
contrast enhancement in the irradiated hemisphere [3]: Minimal contrast enhancement was observed in the irradiated hemisphere

N=C(N)NCCC[C@@H](N)C(=O)N[C@@H](CCCNC(=N)N)C(=O)N1CCC[C@H]1C(=O)N1C[C@H](O)C[C@H]1C(=O)NCC(=O)N[C@H](C(=O)N[C@@H](CO)C(=O)N1[C@H](C(=O)N[C@H](C(=O)N[C@@H](CCCNC(=N)N)C(=O)O)C2Cc3ccccc3C2)C[C@@H]2CCCC[C@@H]21)C1Cc2ccccc2C1 [B9972, DArg[Hyp^3, Igl^5, Oic^7, Igl^8]-BK]
IC50 (human B2R [1]): 199 nM
EC50 (human B2R [2]): 158 nM

N=C(N)NCCC[C@H](NC(=O)[C@H](Cc1cccs1)NC(=O)CN(C(=O)[C@H](CO)NC(=O)[C@H](Cc1cccs1)NC(=O)CNC(=O)[C@@H]1C[C@@H](O)CN1C(=O)[C@@H]1CCCN1C(=O)[C@@H](N)CCCNC(=N)N)C1CCCCC1)C(=O)O [NG291, [Hyp^3, Thi^5, ^NChg^7, Thi^8]-BK] (H-RP[Hyp]G[2Thi]S[Gly(N-cHex)][2Thi]R-OH)
effect on brain tumor burden and number of metastases, in words [4]: did not significantly increase brain tumor burden; also recorded: no difference in terms of both area and number of metastases
IC50 (human B2R [1]): 3 nM
hypotensive effect (normal mice; high dose i.v. NG291, ketamine/xylazine-anesthetized normal mice, strong but reversible, not shown): about -35 mmHg
tolerability (normal mice; high dose i.v. NG291, normal mice): generally well-tolerated
EC50 (human B2R [2]): 0.9 nM
protection against enzymatic degradation by ACE [5]: fully protected against enzymatic degradation by the angiotensin-converting enzyme

RPPGFSPFR [BK, H-Arg^1-Pro^2-Pro^3-Gly^4-Phe^5-Ser^6-Pro^7-Phe^8-Arg^9-OH]
brain trafficking of IV-infused leucocytes (leucocytes, brain): can increase brain trafficking of IV-infused leucocytes
binding affinity at human B2R, in words (human B2R [1]): higher binding affinity (IC50)
BTB permeability by the transcellular pathway (BBB / BTB): may increase BTB permeability, as well by means of the transcellular pathway
